Source: US4365989A, “2-Thiocyanomethylthio-4,4-dialkyl-5-substituted-thiazoline fungicides” (Chevron Research Company, priority 1982, dated 1982)

Key:
[1] = tested on: Plasmopara viticola; test: Grape Downy Mildew control, detached grape leaves; format: in vivo; settings: in Vitis vinifera, Vitis vinifera Emperor detached leaves, read-out: % Control Grape D.M.
Description: The compounds of the invention were tested for the control of the grape downy mildew organism Plasmopara viticola. Detached leaves, between 70 and 85 mm in diameter, of 7-week old Vitis vinifera cultivar Emperor grape seedlings were used as hosts. The leaves were sprayed with a 250 ppm solution of the test compound in acetone. The sprayed leaves were dried, inoculated with a spore suspension of the organism, placed in a humid environmental chamber and incubated at 66° to 68° F. and about 100% relative humidity. After incubation for two days, the plants were then held in a greenhouse seven to nine days; then the amount of disease control was determined. The percent disease control provided by a given gest compound was based on the percent disease reduction relative to untreated check plants.

[2] = tested on: Phytophthora infestans; test: whole plant or invertebrate; format: in vivo; settings: in Solanum lycopersicum, read-out: % Control Tom. L. Bl.
[3] = tested on: Septoria apii; format: in vivo; settings: 250 ppm; celery (Utah) plants
[4] = tested on: Pythium Ultimum; test: Mycelial inhibition, Pythium; format: cell-based; settings: Globisporangium ultimum, 24 hours, relative to standard DIFOLATAN
Description: (§1) A number of the compounds of the present invention were evaluated for in-vitro fungicidal effectiveness by means of a mycelial inhibition test. This test is designed to measure the fungitoxic activity of fungicidal chemicals in terms of their degree of inhibition of mycelium growth. Each compound to be tested was dissolved in acetone to 500 ppm concentration. Paper strips were infused with the particular mycelium growth by covering the paper with a potato dextrose broth culture of mycelial suspension. The papers were then placed on potato dextrose agar plates and sprayed by means of a microsprayer with the fungicidal solution. The treated paper strips were incubated at 25° C. and the data is taken after 24 hours. Fungicidal activities are measured by a zone of inhibited mycelial growth from the center of the paper strip. The effectiveness of the compounds tested for fungicidal activity is reported in Table IIa for those compounds which were effective in inhibiting mycelial growth. The activity is reported in terms of [formula]

[5] = tested on: Rhizoctonia solani; test: Mycelial inhibition, Rhizoctonia; format: cell-based; settings: 24 hours, relative to standard DIFOLATAN, read-out: Mycelial inhibition, % Standard, Rhizoc.
Description: as §1

[6] = tested on: Fusarium Moniliforme; test: Mycelial inhibition, Fusarium; format: cell-based; settings: Fusarium verticillioides, 24 hours, relative to standard DIFOLATAN
Description: as §1

[7] = tested on: Botrytis Cineria; test: Mycelial inhibition, Botrytis; format: cell-based; settings: 24 hours, relative to standard DIFOLATAN
Description: as §1

[8] = tested on: Aspergillus Niger; test: Mycelial inhibition, Aspergillus; format: cell-based; settings: 24 hours, relative to standard DIFOLATAN, read-out: Mycelial inhibition, % Standard, Asper.
Description: as §1

[9] = tested on: Lambsquarter (Chenopodium album); test: Pre-emergent herbicidal test, Lambsquarter; format: in vivo; settings: 504 h, pre-emergence, 33 micrograms/cm^2, 3 weeks, read-out: Herbicidal Activity Pre-Emergence % Control L'Qtr.
Description: (§2) An acetone solution of the test compound was prepared by mixing 750 mg of the compound, 220 mg of a nonionic surfactant and 25 ml of acetone. This solution was added to approximately 125 ml of water containing 156 mg of surfactant.
(§3) Seeds of the test vegetation were planted in a pot of […] and the test solution was sprayed uniformly onto the soil surface at a dose of 33 micrograms/cm^2. The pot was watered and placed in a greenhouse. […] At the end of this period, the herbicidal effectiveness of the compound was rated based on the physiological observations. A 0-to-100 scale was used, 0 representing no phytotoxicity, 100 representing complete kill.

[10] = tested on: Lambsquarter (Chenopodium album); test: Post-emergent herbicidal test, Lambsquarter; format: in vivo; settings: 504 h, post-emergence, 33 micrograms/cm^2, 3 weeks, read-out: Herbicidal Activity Post-Emergence % Control L'Qtr.
[11] = tested on: Mustard (Brassica arvensis); test: Pre-emergent herbicidal test, Mustard; format: in vivo; settings: 504 h, pre-emergence, 33 micrograms/cm^2, 3 weeks
Description: as §2, §3

[12] = tested on: Mustard (Brassica arvensis); test: Post-emergent herbicidal test, Mustard; format: in vivo; settings: 504 h, post-emergence, 33 micrograms/cm^2, 3 weeks
[13] = tested on: Pigweed (Amaranthus retraflexus); test: Pre-emergent herbicidal test, Pigweed; format: in vivo; settings: 504 h, pre-emergence, 33 micrograms/cm^2, 3 weeks
Description: as §2, §3

[14] = tested on: Pigweed (Amaranthus retraflexus); test: Post-emergent herbicidal test, Pigweed; format: in vivo; settings: 504 h, post-emergence, 33 micrograms/cm^2, 3 weeks
[15] = tested on: Crabgrass (Digitaria sanguinalis); test: Pre-emergent herbicidal test, Crabgrass; format: in vivo; settings: 504 h, pre-emergence, 33 micrograms/cm^2, 3 weeks
Description: as §2, §3

[16] = tested on: Crabgrass (Digitaria sanguinalis); test: Post-emergent herbicidal test, Crabgrass; format: in vivo; settings: 504 h, post-emergence, 33 micrograms/cm^2, 3 weeks
[17] = tested on: Watergrass (Ethinochloa crusgalli); test: Pre-emergent herbicidal test, Watergrass; format: in vivo; settings: 504 h; pre-emergence; 33 micrograms/cm^2; 3 weeks
Description: as §2, §3

[18] = tested on: Watergrass (Ethinochloa crusgalli); test: Post-emergent herbicidal test, Watergrass; format: in vivo; settings: 504 h; post-emergence; 33 micrograms/cm^2; 3 weeks
[19] = tested on: Soybean; test: Pre-emergent herbicidal test, Soybean; format: in vivo; settings: Glycine max, 504 h; pre-emergence; 33 micrograms/cm^2; 3 weeks; read-out: Herbicidal Activity Pre-Emergence % Control Soybean
Description: as §2, §3

[20] = tested on: Soybean; test: Post-emergent herbicidal test, Soybean; format: in vivo; settings: Glycine max, 504 h; post-emergence; 33 micrograms/cm^2; 3 weeks; read-out: Herbicidal Activity Post-Emergence % Control Soybean
[21] = tested on: Spirulina maxima; test: Algae control, Spirulina; format: cell-based; settings: Limnospira maxima, 7 to 10 days, read-out: Algicidal Activity % Control Spirulina
Description: (§4) Representative compounds of the invention were tested as aquatic herbicides and algicides by the following method. The weed test species were Lemna minor, Elodea canadensis and the algae used was Spirulina maxima.
(§5) An acetone solution of the test compound and a small amount of an alkylarylpolyoxyethylene glycol-containing surfactant was prepared. This solution was mixed with a nutrient solution in quantity sufficient to give a concentration of 2 ppm. Eight oz. plastic cups were filled with 150 ml of this solution. A sample of the test, Lemna and Elodea, was added together to each cup. Forty ml of Spirulina culture with the 2 ppm treatment was placed in 11/2 oz plastic cups (#4 glass vials used after June 9, 1980). The containers were then placed in an illuminated environment maintained at a temperature of about 20° C. for incubation. The containers were observed periodically for growth (as compared to an untreated check). The effectiveness of the test compound was determined based on a final observation of growth after 7 to 10 days. The results of the test on a 0-to-100 basis--0 indicating no effectiveness and 100 indicating complete effectiveness--are reported in Table IV.

[22] = tested on: Lemna minor; test: Aquatic weeds control, Lemna; format: in vivo; settings: 7 to 10 days, read-out: Algicidal Activity % Control Lemna
Description: as §4, §5

[23] = tested on: Elodea canadensis; test: Aquatic weeds control, Elodea; format: in vivo; settings: 7 to 10 days, read-out: Algicidal Activity % Control Elodea
Description: as §4, §5

## CC1(C)N=C(SCSC#N)SC1=CCl [Compound 3]
[1]
  pest or weed control at 250 ppm: 79%
[2]
  pest or weed control at 250 ppm: 21%
[3]
  % Control Cel. L. Bl.: 15%
[4]
  inhibition at 500 ppm: 40%
[5]
  inhibition at 500 ppm: 55%
[6]
  inhibition at 500 ppm: 115%
[7]
  inhibition at 500 ppm: 64%
[8]
  inhibition at 500 ppm: 69%
[9]
  pest or weed control at 33 µg/cm2: 25%
[10]
  pest or weed control at 33 µg/cm2: 0%
[11]
  pest or weed control at 33 µg/cm2: 15%
[12]
  pest or weed control at 33 µg/cm2: 0%
[13]
  pest or weed control at 33 µg/cm2: 35%
[14]
  pest or weed control at 33 µg/cm2: 0%
[15]
  pest or weed control at 33 µg/cm2: 0%
[16]
  pest or weed control at 33 µg/cm2: 0%
[17]
  pest or weed control at 33 µg/cm2: 0%
[18]
  pest or weed control at 33 µg/cm2: 0%
[19]
  plant injury at 33 µg/cm2: 0%
[20]
  plant injury at 33 µg/cm2: 0%
[21]
  activity at 2 ppm: 40%
[22]
  activity at 2 ppm: 40%
[23]
  activity at 2 ppm: 90%

## CC1(C)N=C(SCSC#N)SC1=CBr [Compound 4]
[1]
  pest or weed control at 250 ppm: 100%
[2]
  pest or weed control at 250 ppm: 0%
[3]
  % Control Cel. L. Bl.: 23%
[4]
  inhibition at 500 ppm: 14%
[5]
  inhibition at 500 ppm: 92%
[6]
  inhibition at 500 ppm: 77%
[7]
  inhibition at 500 ppm: 36%
[8]
  inhibition at 500 ppm: 63%
[9]
  pest or weed control at 33 µg/cm2: 0%
[10]
  pest or weed control at 33 µg/cm2: 0%
[11]
  pest or weed control at 33 µg/cm2: 0%
[12]
  pest or weed control at 33 µg/cm2: 0%
[13]
  pest or weed control at 33 µg/cm2: 0%
[14]
  pest or weed control at 33 µg/cm2: 0%
[15]
  pest or weed control at 33 µg/cm2: 0%
[16]
  pest or weed control at 33 µg/cm2: 0%
[17]
  pest or weed control at 33 µg/cm2: 0%
[18]
  pest or weed control at 33 µg/cm2: 0%
[19]
  plant injury at 33 µg/cm2: 0%
[20]
  plant injury at 33 µg/cm2: 0%
[21]
  activity at 2 ppm: 30%
[22]
  activity at 2 ppm: 35%
[23]
  activity at 2 ppm: 80%
